Results reported in patent US9562914B2, “Microfluidic device for real-time clinical monitoring and quantitative assessment of whole blood coagulation” (President and Fellows of Harvard College, priority 2013, dated 2017).

System: whole human blood
Experiment: whole blood clotting time in microfluidic coagulation device (infusion or pressure pump mode)
Type: cell-based
Details: microchannels coated with human collagen I at 100 μg/ml; device of FIG. 13A; uncoated PDMS 15-60 minutes
Experimental: As discussed below, in the test configuration, 2-5 ml of human whole blood was pumped through an infusion or pressure pump followed by an inline pressure sensor that connected to ports 120a, 120b of the microfluidic device 100 via appropriate medical grade tubing (e.g., 1.6 mm ID). In infusion mode, clot formation leads to an increase in pressure, whereas in constant pressure mode, the flow rate drops with respect to time. […] The characteristic constants of these models indicate clotting times at two stages—when the clot formation is accelerating and when the clot has completely occluded the channel. […] Fluorescence microscopy of fibrinogen and platelets allow real-time monitoring of fibrin formation and platelet aggregation simultaneously.
In the testing conducted with the microfluidic device 100 of FIG. 1, fresh human blood stored in a 5 ml syringe (slip-tip Plastipak, BD, Franklin Lakes, N.J.) was pushed via syringe pump (PHD Ultra CP, Harvard Apparatus, Holliston, Mass.) through an inline, disposable pressure sensor (PREPS-N-000, PendoTECH, Princeton, N.J.) followed by the PDMS device within 15 minutes of blood draw. […] In the test setup, the imaging device 130 used was a fluorescence imaging configured Carl Zeiss Axio 3 Observer microscope (10×, NA 0.3 objective), but other imaging devices may be readily used in accord with the present concepts. […]

## human collagen I: human collagen I coated on the microchannels at a concentration of 100 μg/ml
  clotting time with collagen-coated microchannels: 2 to 20 min
